Assays:
CYP2A6 = molecular target: T1, CYP2A6 (Homo sapiens, UniProt P11509); assay: Inhibition of CYP2A6 (coumarin) activity in pooled human liver microsomes, cocktail incubation; type: in vitro ADME; conditions: substrate coumarin 5 µM; pooled HLMs; read-out: IC50, P450 2A6
T1 construct: incubation mixtures containing pooled human liver microsomes (HLMs, XTreme 200, XenoTech); tissue XenoTech XTreme 200; host or cells: pooled human liver microsomes
T1 sequence (P11509 1-494): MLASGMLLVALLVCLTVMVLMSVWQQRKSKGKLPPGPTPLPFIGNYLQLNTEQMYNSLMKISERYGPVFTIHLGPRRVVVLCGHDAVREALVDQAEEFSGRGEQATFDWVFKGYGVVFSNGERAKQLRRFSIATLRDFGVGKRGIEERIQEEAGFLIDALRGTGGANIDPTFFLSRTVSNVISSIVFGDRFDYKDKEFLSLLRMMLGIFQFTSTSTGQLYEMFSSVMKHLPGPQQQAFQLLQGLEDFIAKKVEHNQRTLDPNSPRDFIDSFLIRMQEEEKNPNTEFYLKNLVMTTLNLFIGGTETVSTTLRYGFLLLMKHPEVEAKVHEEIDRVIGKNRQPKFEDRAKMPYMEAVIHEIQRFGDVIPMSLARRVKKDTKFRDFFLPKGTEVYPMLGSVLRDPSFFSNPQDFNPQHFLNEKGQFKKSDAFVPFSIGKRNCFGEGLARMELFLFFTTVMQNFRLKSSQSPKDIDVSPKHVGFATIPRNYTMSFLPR
Method: (§1) The inhibitory potential of the five biflavonoids on the metabolism of nine P450 probe substrates was evaluated using previously developed methods with minor modifications. Biflavonoids were dissolved in methanol. The final concentration of methanol in the incubation mixture was 1.0% (v/v). We used these P450 probe substrates: phenacetin for CYP1A2, coumarin for CYP2A6, bupropion for CYP2B6, amodiaquine for CYP2C8, diclofenac for CYP2C9, omeprazole for CYP2C19, dextromethorphan for CYP2D6, chlorzoxazone for CYP2E1 and midazolam for CYP3A (Table 1). The incubation mixtures containing pooled human liver microsomes (HLMs, XTreme 200, XenoTech), P450 probe substrates, and inhibitor (0~20 µM) were pre-incubated at 37 °C for 5 min. The concentration range of the inhibitor varied (0, 0.002, 0.005, 0.02, 0.05, and 0.2 µM for CYP2C8; 0, 0.02, 0.05, 0.2, 0.5, and 2 µM for CYP2C9; 0, 0.5, 2, 5, 10, and 20 µM for other P450 isoforms). After pre-incubation, a reduced nicotinamide adenine dinucleotide phosphate (NADPH) generation system containing 1 unit/ml G6PDH, 1.3 mM β- nicotinamide adenine dinucleotide phosphate (β- NADP^+), 3.3 mM MgCl2, and 3.3 mM G6P was added to initiate a reaction, and further incubated for 10 min at 37 °C. The reaction was stopped by adding 50 μL of ice-cold acetonitrile containing 7 nM trimipramine (internal standard, IS). After centrifugation at 18,000 g (5 min, 4 °C), aliquots of supernatants were analyzed by LC–MS/MS (Shimadzu LCMS 8060 system, Shimadzu, Kyoto, Japan). All microsomal incubations were conducted in triplicate.
(§2) All metabolites and the IS were separated on a Kinetex XB-C18 column (100 × 2.10 mm, 2.6 μm, 100 Å; Phenomenex, Torrance, CA, USA) and analyzed using a Shimadzu LCMS 8060 triple-quadrupole mass spectrometer coupled with a Nexera X2 ultra high-performance liquid chromatography system (Shimadzu, Kyoto, Japan) equipped with an electrospray ionization interface. The mobile phase consisted of 0.1% formic acid in water (A) and 0.1% formic acid in acetonitrile (B). The elution condition was set as 8% B (0–0.5 min), 8%→60% B (0.5–5 min), 60% B (5–6 min), 60%→8% B (6–6.1 min) and 8% B (6.1–9 min) for the analysis of metabolites of P450 probe substrates and set as 0%→40% B (0–1 min), 40%→50% B (1–5 min), 50%→0% B (5–5.1 min), and 0% B (5.1–8 min) for the analysis of metabolites of UGT probe substrates. The flow rate was 0.2 mL/min. Electrospray ionization was performed in positive-ion mode at 4000 V or in negative-ion mode at −3500 V. The optimum operating conditions were determined as follows: vaporizer temperature, 300 °C; capillary temperature, 350 °C; collision gas (argon) pressure, 1.5 mTorr. Quantitation was conducted in selected reaction monitoring (SRM) modes with the precursor-to-product ion transition for each metabolite (Table 1 and Table 2).
(§3) We analyzed the data with Shimadzu LabSolution LC–MS software. The IC50 values were calculated by WinNonlin software (Pharsight, Mountain View, CA, USA). The type of inhibition and the apparent kinetic parameters for inhibitory activity (Ki) were determined by following several criteria: visual inspection of Dixon plots, Lineweaver–Burk double reciprocal plots, and secondary plots of Lineweaver–Burk plots versus biflavonoid concentrations, the size of the sum of squares of the residuals, Akaike Information Criteria values, the S.E. and 95% confidence interval of the parameter estimates from the nonlinear regression analysis using the WinNonlin software. The models tested included competitive, competitive partial, noncompetitive, noncompetitive partial, uncompetitive, uncompetitive partial, and mixed-type inhibition.

CYP2E1 = molecular target: T2, CYP2E1 (Homo sapiens, UniProt P05181); assay: Inhibition of CYP2E1 (chlorzoxazone) activity in pooled human liver microsomes; type: in vitro ADME; conditions: substrate chlorzoxazone 50 µM; pooled HLMs; read-out: IC50, P450 2E1
T2 construct: incubation mixtures containing pooled human liver microsomes (HLMs, XTreme 200, XenoTech); tissue XenoTech XTreme 200; host or cells: pooled human liver microsomes
Method: as §1, §2, §3

T2 sequence (P05181 whole entry): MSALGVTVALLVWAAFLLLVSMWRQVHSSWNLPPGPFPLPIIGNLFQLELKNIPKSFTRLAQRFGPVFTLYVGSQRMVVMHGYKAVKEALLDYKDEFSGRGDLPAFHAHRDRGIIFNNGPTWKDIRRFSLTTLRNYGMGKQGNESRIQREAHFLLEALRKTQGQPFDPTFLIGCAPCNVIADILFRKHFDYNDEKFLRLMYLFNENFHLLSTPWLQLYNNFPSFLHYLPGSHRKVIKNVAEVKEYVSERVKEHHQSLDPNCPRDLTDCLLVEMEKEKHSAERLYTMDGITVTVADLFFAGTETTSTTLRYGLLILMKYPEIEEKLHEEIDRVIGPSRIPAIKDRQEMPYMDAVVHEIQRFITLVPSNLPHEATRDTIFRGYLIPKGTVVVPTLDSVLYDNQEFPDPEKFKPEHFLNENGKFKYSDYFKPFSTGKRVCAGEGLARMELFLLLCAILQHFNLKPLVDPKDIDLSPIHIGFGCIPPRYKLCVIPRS

Structure (SMILES) | IC50 (CYP2A6) | IC50 (CYP2E1)
CC(C)(O)c1ccccc1CC[C@@H](SCC1(CC(=O)O)CC1)c1cccc(/C=C/c2ccc3ccc(Cl)cc3n2)c1 [montelukast, reference compound] | > 50 µM | > 50 µM
O=c1cc(-c2ccc(O)c(-c3c(O)cc(O)c4c(=O)cc(-c5ccc(O)cc5)oc34)c2)oc2cc(O)cc(O)c12 [amentoflavone] | 11.9 µM | 3.3 µM
O=c1cc(-c2ccc(O)c(-c3c(-c4ccc(O)cc4)oc4cc(O)cc(O)c4c3=O)c2)oc2cc(O)cc(O)c12 [taiwaniaflavone] | 10.6 µM | 6 µM
O=c1cc(-c2ccc(O)c(-c3c(O)cc4oc(-c5ccc(O)cc5)cc(=O)c4c3O)c2)oc2cc(O)cc(O)c12 [robustaflavone] | 11.8 µM | 2.9 µM
O=C1CC(c2cc(-c3c(O)ccc4c(=O)cc(-c5ccc(O)cc5)oc34)c(O)cc2O)Oc2cc(O)cc(O)c21 (stereo not drawn) [selamariscina A] | 11.6 µM | > 20 µM
O=c1cc(-c2ccc(O)cc2)oc2c(-c3c(O)cc(O)c4c(=O)cc(-c5ccc(O)cc5)oc34)c(O)cc(O)c12 [cupressuflavone] | > 20 µM | 2.3 µM

Reference: paper PMC7238120, “Strong and Selective Inhibitory Effects of the Biflavonoid Selamariscina A against CYP2C8 and CYP2C9 Enzyme Activities in Human Liver Microsomes” (Pharmaceutics, 2020)
